Results from patent US7704995B2 (Exelixis, Inc., priority 2003, dated 2010).

What follows are compounds tested against T1, Chk1 (Homo sapiens, UniProt O14757) (assay: Chk1 kinase assay: incorporation of γ-33P ATP into immobilized myelin basic protein). Conditions: read-out: Chk1 IC50.
T1 construct: purchased Upstate Biotechnology
T1 sequence (O14757 1-476): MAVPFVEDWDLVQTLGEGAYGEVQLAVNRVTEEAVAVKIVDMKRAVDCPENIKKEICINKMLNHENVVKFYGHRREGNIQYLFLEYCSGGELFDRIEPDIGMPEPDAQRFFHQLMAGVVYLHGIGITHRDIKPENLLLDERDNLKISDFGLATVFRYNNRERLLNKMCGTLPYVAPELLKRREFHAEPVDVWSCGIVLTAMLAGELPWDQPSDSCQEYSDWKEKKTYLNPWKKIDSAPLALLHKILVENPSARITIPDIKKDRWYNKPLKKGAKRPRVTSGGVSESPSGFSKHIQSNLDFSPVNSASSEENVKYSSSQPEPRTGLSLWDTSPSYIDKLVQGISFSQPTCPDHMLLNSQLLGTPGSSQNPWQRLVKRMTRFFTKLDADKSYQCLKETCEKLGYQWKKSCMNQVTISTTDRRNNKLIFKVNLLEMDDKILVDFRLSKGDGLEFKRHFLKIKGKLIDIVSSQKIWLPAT
Type: biochemical
How it was run: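 Read-out is scintillation counting of 33P incorporated into plate-bound myelin basic protein. Chk1 runs at 10 nM enzyme with 10 μM ATP, Chk2 at 20 nM with 30 μM ATP, each for 1 hour at room temperature. Duplicate points; IC50 taken as 50% activity reduction, Ki computed from IC50.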

Compound | IC50 [nM]
CNC(=O)c1nc(-c2cccc(C(=O)NCC3CCN(C(=O)OC(C)(C)C)C3)c2)cnc1N (stereo not shown) [Example 364, 1,1-dimethylethyl 3-({[(3-{5-amino-6-[(methylamino)carbonyl]pyrazin-2-yl}phenyl)carbonyl]amino}methyl)pyrrolidine-1-carboxylate] | 50 to 1000
CNC(=O)c1nc(-c2cccc(C(=O)NCC3CCCN3C(=O)OC(C)(C)C)c2)cnc1N (stereo not shown) [Example 365, 1,1-dimethylethyl 2-({[(3-{5-amino-6-[(methylamino)carbonyl]pyrazin-2-yl}phenyl)carbonyl]amino}methyl)pyrrolidine-1-carboxylate] | 1000 to 10000
CNC(=O)c1nc(-c2cccc(C(=O)NCC3CCNC3)c2)cnc1N (stereo not shown) [Example 366, 3-amino-N-methyl-6-(3-{[(pyrrolidin-3-ylmethyl)amino]carbonyl}phenyl)pyrazine-2-carboxamide] | 50 to 1000
CNC(=O)c1nc(-c2cccc(C(=O)NCC3CCCN3)c2)cnc1N (stereo not shown) [Example 367, 3-amino-N-methyl-6-(3-{[(pyrrolidin-2-ylmethyl)amino]carbonyl}phenyl)pyrazine-2-carboxamide] | 50 to 1000
CNC(=O)c1nc(-c2cc(C(=O)NCc3ccccc3)ccc2F)cnc1N [Example 368, 3-amino-6-(2-fluoro-5-{[(phenylmethyl)amino]carbonyl}phenyl)-N-methylpyrazine-2-carboxamide] | 50 to 1000
CNC(=O)c1nc(-c2cccc(NC(=O)Cc3ccc4c(c3)OCO4)c2)cnc1N [Example 369, 3-amino-6-{3-[(1,3-benzodioxol-5-ylacetyl)amino]phenyl}-N-methylpyrazine-2-carboxamide] | 50 to 1000
CNC(=O)c1nc(-c2cccc(C(=O)NCc3ccc(F)cc3Cl)c2)cnc1N [Example 370, 3-amino-6-[3-({[(2-chloro-4-fluorophenyl)methyl]amino}carbonyl)phenyl]-N-methylpyrazine-2-carboxamide] | 50 to 1000
CNC(=O)c1nc(-c2cccc(C(=O)NCc3ccc(OC)c(OC)c3)c2)cnc1N [Example 371, 3-amino-6-{3-[({[3,4-bis(methyloxy)phenyl]methyl}amino)carbonyl]phenyl}-N-methylpyrazine-2-carboxamide] | 50 to 1000
CNC(=O)c1nc(-c2cccc(NCc3ccccc3)c2)cnc1N [Example 372, 3-amino-N-methyl-6-{3-[(phenylmethyl)amino]phenyl}pyrazine-2-carboxamide] | 50 to 1000
CNC(=O)c1nc(-c2cccc(C(=O)NCc3ccccc3OCCN3CCOCC3)c2)cnc1N [Example 373, 3-amino-N-methyl-6-(3-{[({2-[(2-morpholin-4-ylethyl)oxy]phenyl}methyl)amino]carbonyl}phenyl)pyrazine-2-carboxamide] | 50 to 1000
CNC(=O)c1nc(-c2cccc(CNC(=O)c3ccc(C(C)C)cc3)c2)cnc1N [Example 374, 3-amino-N-methyl-6-{3-[({[4-(1-methylethyl)phenyl]carbonyl}amino)methyl]phenyl}pyrazine-2-carboxamide] | 50 to 1000
CCCCc1ccc(CNC(=O)c2cccc(-c3cnc(N)c(C(=O)NC)n3)c2)cc1 [Example 375, 3-amino-6-[3-({[(4-butylphenyl)methyl]amino}carbonyl)phenyl]-N-methylpyrazine-2-carboxamide] | 50 to 1000
CNC(=O)c1nc(-c2cccc(C(=O)NCc3ccc(-c4csnn4)cc3)c2)cnc1N [Example 376, 3-amino-N-methyl-6-{3-[({[4-(1,2,3-thiadiazol-4-yl)phenyl]methyl}amino)carbonyl]phenyl}pyrazine-2-carboxamide] | < 50
CNC(=O)c1nc(-c2cccc(C(=O)NCc3ccc(-c4cccs4)cc3)c2)cnc1N [Example 377, 3-amino-N-methyl-6-{3-[({[4-(2-thienyl)phenyl]methyl}amino)carbonyl]phenyl}pyrazine-2-carboxamide] | < 50
CNC(=O)c1nc(-c2cccc(CNC(=O)c3ccc(C(C)(C)C)cc3)c2)cnc1N [Example 378, 3-amino-6-{3-[({[4-(1,1-dimethylethyl)phenyl]carbonyl}amino)methyl]phenyl}-N-methylpyrazine-2-carboxamide] | 50 to 1000
CNC(=O)c1nc(-c2cccc(C(=O)NCc3ccc(-n4cccn4)cc3)c2)cnc1N [Example 379, 3-amino-N-methyl-6-{3-[({[4-(1H-pyrazol-1-yl)phenyl]methyl}amino)carbonyl]phenyl}pyrazine-2-carboxamide] | 50 to 1000
CNC(=O)c1nc(-c2cccc(C(=O)NCc3ccc4c(c3)NCCO4)c2)cnc1N [Example 380, 3-amino-6-(3-{[(3,4-dihydro-2H-1,4-benzoxazin-6-ylmethyl)amino]carbonyl}phenyl)-N-methylpyrazine-2-carboxamide] | 50 to 1000

Compound | IC50 [nM]
CNC(=O)c1nc(-c2cccc(C(=O)NCc3c(N)cccc3F)c2)cnc1N [Example 381, 3-amino-6-[3-({[(2-amino-6-fluorophenyl)methyl]amino}carbonyl)phenyl]-N-methylpyrazine-2-carboxamide] | 50 to 1000
CNC(=O)c1nc(-c2cccc(CNCc3ccc(-c4ccccc4)cc3)c2)cnc1N [Example 382, 3-amino-6-(3-{[(biphenyl-4-ylmethyl)amino]methyl}phenyl)-N-methylpyrazine-2-carboxamide] | 50 to 1000
CNC(=O)c1nc(-c2cccc(CNCc3ccccc3-c3ccccc3)c2)cnc1N [Example 383, 3-amino-6-(3-{[(biphenyl-2-ylmethyl)amino]methyl}phenyl)-N-methylpyrazine-2-carboxamide] | 50 to 1000
CNC(=O)c1nc(-c2cccc(CNCc3cccc(-c4ccccc4)c3)c2)cnc1N [Example 384, 3-amino-6-(3-{[(biphenyl-3-ylmethyl)amino]methyl}phenyl)-N-methylpyrazine-2-carboxamide] | 50 to 1000
CNC(=O)c1nc(-c2cccc(C(=O)NCC3CCCN3Cc3ccccc3)c2)cnc1N (stereo not shown) [Example 385, 3-amino-N-methyl-6-{3-[({[1-(phenylmethyl)pyrrolidin-2-yl]methyl}amino)carbonyl]phenyl}pyrazine-2-carboxamide] | 50 to 1000
CNC(=O)c1nc(-c2cccc(CNCc3ccc4c(c3)NCCO4)c2)cnc1N [Example 386, 3-amino-6-(3-{[(3,4-dihydro-2H-1,4-benzoxazin-6-ylmethyl)amino]methyl}phenyl)-N-methylpyrazine-2-carboxamide] | 50 to 1000
CNC(=O)c1nc(-c2cccc(CNCc3ccc(F)cc3F)c2)cnc1N [Example 387, 3-amino-6-[3-({[(2,4-difluorophenyl)methyl]amino}methyl)phenyl]-N-methylpyrazine-2-carboxamide] | < 50
CNC(=O)c1nc(-c2cccc(CNCc3cc(F)ccc3F)c2)cnc1N [Example 388, 3-amino-6-[3-({[(2,5-difluorophenyl)methyl]amino}methyl)phenyl]-N-methylpyrazine-2-carboxamide] | 50 to 1000
CNC(=O)c1nc(-c2cccc(CNCc3cccc(F)c3F)c2)cnc1N [Example 389, 3-amino-6-[3-({[(2,3-difluorophenyl)methyl]amino}methyl)phenyl]-N-methylpyrazine-2-carboxamide] | 50 to 1000
CNC(=O)c1nc(-c2cccc(C(=O)NCc3ccccc3-c3ccncc3)c2)cnc1N [Example 390, 3-amino-N-methyl-6-[3-({[(2-pyridin-4-ylphenyl)methyl]amino}carbonyl)phenyl]pyrazine-2-carboxamide] | 50 to 1000
CNC(=O)c1nc(-c2cccc(C(=O)NCc3ccccc3-c3cccnc3)c2)cnc1N [Example 391, 3-amino-N-methyl-6-[3-({[(2-pyridin-3-ylphenyl)methyl]amino}carbonyl)phenyl]pyrazine-2-carboxamide] | 50 to 1000
CNC(=O)c1nc(-c2cccc(CNCc3ccc(S(C)(=O)=O)cc3)c2)cnc1N [Example 392, 3-amino-N-methyl-6-{3-[({[4-(methylsulfonyl)phenyl]methyl}amino)methyl]phenyl}pyrazine-2-carboxamide] | 50 to 1000
CNC(=O)c1nc(-c2cccc(CNCC(c3ccccc3)c3ccccc3)c2)cnc1N [Example 393, 3-amino-6-(3-{[(2,2-diphenylethyl)amino]methyl}phenyl)-N-methylpyrazine-2-carboxamide] | 50 to 1000
CNC(=O)c1nc(-c2cccc(C(=O)NCC3CCN(Cc4ccccc4)C3)c2)cnc1N (stereo not shown) [Example 394, 3-amino-N-methyl-6-{3-[({[1-(phenylmethyl)pyrrolidin-3-yl]methyl}amino)carbonyl]phenyl}pyrazine-2-carboxamide] | 50 to 1000
CNC(=O)c1nc(-c2cccc(CNCc3cccc(Oc4ccccc4)c3)c2)cnc1N [Example 395, 3-amino-N-methyl-6-{3-[({[3-(phenyloxy)phenyl]methyl}amino)methyl]phenyl}pyrazine-2-carboxamide] | 50 to 1000
CNC(=O)c1nc(-c2cccc(CNCc3ccc(N)cc3)c2)cnc1N [Example 396, 3-amino-6-[3-({[(4-aminophenyl)methyl]amino}methyl)phenyl]-N-methylpyrazine-2-carboxamide] | 50 to 1000
CNC(=O)c1nc(-c2cccc(CNCc3ccc(Oc4ccccc4)cc3)c2)cnc1N [Example 397, 3-amino-N-methyl-6-{3-[({[4-(phenyloxy)phenyl]methyl}amino)methyl]phenyl}pyrazine-2-carboxamide] | 50 to 1000
